# Measured values published in patent publication US11116757B2 (priority 2015, dated 2021).
# Molecular target: DCN1-UBC12 interaction (Homo sapiens (Human), UniProt Q96GG9)
# Test: biochemical
# Type: binding
# Settings: Table 4, commercial compounds; read-out: TR-FRET IC50
# Chain of DCN1-UBC12 interaction (Q96GG9 60-248 limits assumed): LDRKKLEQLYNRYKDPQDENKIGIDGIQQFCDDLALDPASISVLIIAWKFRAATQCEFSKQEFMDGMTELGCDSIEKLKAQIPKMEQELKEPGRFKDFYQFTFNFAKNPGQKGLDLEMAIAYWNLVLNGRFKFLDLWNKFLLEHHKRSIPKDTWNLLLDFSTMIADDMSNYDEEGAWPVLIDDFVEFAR
row,Structure (SMILES),IC50 [µM]
1,COc1ccc(NC(=O)C2CCN(C(=O)N3CCOc4ccccc43)CC2)cc1 [C53],> 67.6
2,CCC1CN(C(=O)N2CCC(C(=O)Nc3cccc(OC)c3)CC2)c2ccccc2O1 (centres unmarked) [C54],> 67.6
3,CCC1CN(C(=O)N2CCC(C(=O)Nc3cccc(Cl)c3)CC2)c2ccccc2O1 (centres unmarked) [C55],> 67.6
4,CCc1cccc(NC(=O)C2CCN(C(=O)N3CC(CC)Oc4ccccc43)CC2)c1 (centres unmarked) [C56],> 67.6
5,O=C(Nc1cccc(C(F)(F)F)c1)C1CCN(C(=O)/C=C/c2ccccc2)CC1 [C57],> 67.6
6,COc1ccc(C(=O)N2CCC(C(=O)Nc3cccc(F)c3)CC2)c2ccccc12 [C58],> 67.6
7,COc1cccc(NC(=O)C2CCN(C(=O)c3ccc(OC)c4ccccc34)CC2)c1 [C59],> 67.6
8,COc1ccc(C(=O)N2CCC(C(=O)Nc3cccc([N+](=O)[O-])c3)CC2)c2ccccc12 [C60],> 67.6
9,Cc1ccccc1/C=C/C(=O)N1CCC(C(=O)Nc2ccc3c(c2)OCO3)CC1 [C61],> 67.6
10,COc1ccc(C(=O)N2CCC(C(=O)Nc3ccccc3C)CC2)c2ccccc12 [C62],> 67.6
11,Cc1cccc(NC(=O)C2CCN(C(=O)c3cccc4ccccc34)CC2)c1 [C63],> 67.6
12,O=C(Nc1cccc([N+](=O)[O-])c1)C1CCN(C(=O)c2cccc3ccccc23)CC1 [C64],> 67.6
13,O=C(Nc1ccc(C(F)(F)F)cc1)C1CCN(C(=O)c2ccccc2F)CC1 [C65],> 68.1
14,O=C(Nc1ccc(F)c(Cl)c1)C1CCN(C(=O)c2ccc(Cl)cc2)CC1 [C66],> 75.6
15,CCc1ccccc1NC(=O)C1CCN(C(=O)c2ccc(F)cc2)CC1 [C67],> 75.6
16,O=C(Nc1cccc(C(F)(F)F)c1)C1CCN(C(=O)c2ccco2)CC1 [C68],> 75.7
17,CCc1cccc(NC(=O)C2CCN(C(=O)c3cnn(-c4ccccc4)c3-n3cccc3)CC2)c1 [C69],> 81.4
18,O=C(Nc1ccc(F)c(Cl)c1)C1CCN(C(=O)c2ccc(Br)cc2)CC1 [C70],> 83.8
19,COc1ccc(C(=O)NC2CCN(C(=O)c3ccc(OC)cc3)CC2)cc1 [C71],> 92.2

# Same assay, conditions: Table 6, commercial compounds; read-out: TR-FRET IC50
row,Structure (SMILES),IC50 [µM]
1,CCN(CC)CCN(CC)C(=O)c1cnn(-c2nccc(-c3cccs3)n2)c1C1CC1 [E2],4.53
2,CCN(CC)CCN(CC)C(=O)c1cnn(-c2nccc(-c3cccs3)n2)c1C [E3],7.77
3,CCN1CCN(C(=O)c2cnn(-c3nccc(-c4cccs4)n3)c2C(C)C)CC1 [E4],13.1
4,CCN(CC)CCN(CC)C(=O)c1cnn(-c2nccc(-c3cccs3)n2)c1C(C)C [E5],17.4
5,Cc1c(C(=O)N(C)CC(C)C)cnn1-c1nccc(-c2cccs2)n1 [E6],18.8
6,CC(C)c1c(C(=O)N2CCN(CCO)CC2)cnn1-c1nccc(-c2cccs2)n1 [E7],21.3
7,COCCN1CCN(C(=O)c2cnn(-c3nccc(-c4cc(C)sc4C)n3)c2COC)CC1 [E8],22.8
8,CCN(CC)CCN(CC)C(=O)c1cnn(-c2ncc3c(n2)-c2ccccc2CC3)c1C1CC1 [E9],23.1
9,CCOc1ccccc1N1CCN(C(=O)c2cnn(-c3nccc(-c4ccco4)n3)c2C)CC1 [E10],25
10,CCCN1CCN(C(=O)c2cnn(-c3ncc(C)c(-c4cccs4)n3)c2COC)CC1 [E11],26
11,CCOC(=O)N1CCN(C(=O)c2cnn(-c3ncc(C)c(-c4cccs4)n3)c2C)CC1 [E12],28.3
12,COCCN1CCN(C(=O)c2cnn(-c3nccc(-c4cccs4)n3)c2C2CC2)CC1 [E13],28.8
13,CCN1CCN(C(=O)c2cnn(-c3nccc(-c4cccs4)n3)c2C2CC2)CC1 [E14],29.9
14,CCN(CC)CCN(C)C(=O)c1cnn(-c2nccc(-c3cccs3)n2)c1C(C)C [E15],32.1
15,CCN(CC)CCN(CC)C(=O)c1cnn(-c2ncc(C)c(-c3cccs3)n2)c1COC [E16],33.3
16,COCCN1CCN(C(=O)c2cnn(-c3nccc(-c4cccs4)n3)c2C(C)C)CC1 [E17],34.4
17,CCN(CC)CCN(CC)C(=O)c1cnn(-c2ncc(C)c(-c3cccs3)n2)c1C1CC1 [E18],38.1
18,CCN(CC)CCNC(=O)c1cnn(-c2nccc(-c3cccs3)n2)c1C(C)C [E19],42.1
19,CCN1CCN(C(=O)c2cnn(-c3ncc(C)c(-c4cccs4)n3)c2COC)CC1 [E20],48.2

# Same assay, conditions: read-out: TR-FRET IC50
row,Structure (SMILES),IC50 [µM]
1,COc1cc(C(=O)N2CCC(c3nc4ccccc4s3)CC2)cc(OC)c1Br [D1],2.31
2,COc1cc(C(=O)N2CCC(c3nc4ccccc4s3)CC2)cc(OC)c1OC [D2],8.53
3,Cc1ccc(C(=O)N2CCC(c3nc4ccccc4s3)CC2)cc1 [D3],14.7
4,Cc1cccc(C(=O)N2CCC(c3nc4ccccc4s3)CC2)c1 [D4],18
5,O=C(c1ccc(F)cc1Cl)N1CCC(c2nc3ccccc3s2)CC1 [D5],18.2
6,O=C(c1ccccc1Cl)N1CCC(c2nc3ccccc3s2)CC1 [D6],18.5
7,O=C(c1ccc(Cl)c(Cl)c1)N1CCC(c2nc3ccccc3s2)CC1 [D7],19.5
8,O=C(c1ccccc1Br)N1CCC(c2nc3ccccc3s2)CC1 [D8],19.8
9,O=C(c1ccc(Br)cc1)N1CCC(c2nc3ccccc3s2)CC1 [D9],21.8
10,Cc1cc(C)cc(C(=O)N2CCC(c3nc4ccccc4s3)CC2)c1 [D10],25.4
11,O=C(c1ccc(F)cc1F)N1CCC(c2nc3ccccc3s2)CC1 [D11],30.6
12,O=C(c1cccc(F)c1)N1CCC(c2nc3ccccc3s2)CC1 [D12],31.4
13,O=C(c1ccccc1F)N1CCC(c2nc3ccccc3s2)CC1 [D13],45.3
14,COc1cccc(C(=O)N2CCC(c3nc4ccccc4s3)CC2)c1 [D14],66.4
15,O=C(c1ccc(F)cc1)N1CCC(c2nc3ccccc3s2)CC1 [D15],> 46.2
16,O=C(c1ccc(F)cc1)N1CCCC(c2nc3ccccc3s2)C1 (centres unmarked) [D16],> 48.7
17,Cc1ccc(C(=O)N2CCC(c3nc4ccccc4s3)CC2)cc1C [D17],> 53.9

row,Structure (SMILES),IC50 [µM]
1,O=C(c1cccc(Br)c1)N1CCC(c2nc3cc(Cl)ccc3s2)CC1 [D18],> 60.8
2,COc1ccc(C(=O)N2CCC(c3nc4ccccc4s3)CC2)cc1OC [D19],> 62.9
3,O=C(c1ccc(Cl)cc1)N1CCC(c2nc3ccccc3s2)CC1 [D20],> 67.3
4,COc1cc(SC)ccc1C(=O)N1CCC(c2nc3ccccc3s2)CC1 [D21],> 67.6
5,COc1cc(OC)cc(C(=O)N2CCC(c3nc4ccccc4s3)CC2)c1 [D22],> 67.6
6,O=C(NCC(=O)N1CCC(c2nc3ccccc3s2)CC1)c1cccc(F)c1 [D23],> 67.6
7,COc1cc(C(=O)N2CCCC(c3nc4ccccc4s3)C2)cc(OC)c1OCC(N)=O (centres unmarked) [D24],> 67.6
8,CCOc1ccc(C(=O)N2CCCC(c3nc4ccccc4s3)C2)cc1 (centres unmarked) [D25],> 67.6
9,COc1ccc(C(=O)NCC(=O)N2CCC(c3nc4ccccc4s3)CC2)cc1OC [D26],> 67.6
10,O=C(c1ccc(Br)cc1)N1CCCC(c2nc3ccccc3s2)C1 (centres unmarked) [D27],> 67.6
11,CCOc1cc(C(=O)N2CCCC(c3nc4ccccc4s3)C2)cc(Br)c1OC (centres unmarked) [D28],> 67.6
12,O=C(c1ccccc1O)N1CCC(c2nc3ccccc3s2)CC1 [D29],> 67.6
13,COc1cc(OC)cc(C(=O)N2CCCC(c3nc4ccccc4s3)C2)c1 (centres unmarked) [D30],> 67.6
14,O=C(c1ccc(I)cc1)N1CCCC(c2nc3ccccc3s2)C1 (centres unmarked) [D31],> 67.6
15,Cc1cc(C)cc(C(=O)N2CCCC(c3nc4ccccc4s3)C2)c1 (centres unmarked) [D32],> 67.6
16,CCOc1ccc(C(=O)NCC(=O)N2CCC(c3nc4ccccc4s3)CC2)cc1 [D33],> 67.6
